Measured values from ChEMBL document CHEMBL4507291 (2021).

How the values were obtained:
[1] = molecular target: Tyrosine-protein kinase SYK (Homo sapiens) (UniProt P43405)
[2] = molecular target: Serine/threonine-protein kinase DCLK1 (Homo sapiens) (UniProt O15075)
[3] = molecular target: Serine/threonine-protein kinase Nek7 (Homo sapiens) (UniProt Q8TDX7)
[4] = molecular target: Homeodomain-interacting protein kinase 1 (Homo sapiens) (UniProt Q86Z02)
[5] = molecular target: Proto-oncogene tyrosine-protein kinase ROS (Homo sapiens) (UniProt P08922)
[6] = molecular target: Calcium/calmodulin-dependent protein kinase type II subunit alpha (Homo sapiens) (UniProt Q9UQM7)
[7] = molecular target: Tyrosine-protein kinase Fes/Fps (Homo sapiens) (UniProt P07332)
[8] = molecular target: T1, 5-hydroxytryptamine receptor 3A (Homo sapiens) (UniProt P46098); conditions: Compound concentration 10.0 uM
T1 sequence (whole entry): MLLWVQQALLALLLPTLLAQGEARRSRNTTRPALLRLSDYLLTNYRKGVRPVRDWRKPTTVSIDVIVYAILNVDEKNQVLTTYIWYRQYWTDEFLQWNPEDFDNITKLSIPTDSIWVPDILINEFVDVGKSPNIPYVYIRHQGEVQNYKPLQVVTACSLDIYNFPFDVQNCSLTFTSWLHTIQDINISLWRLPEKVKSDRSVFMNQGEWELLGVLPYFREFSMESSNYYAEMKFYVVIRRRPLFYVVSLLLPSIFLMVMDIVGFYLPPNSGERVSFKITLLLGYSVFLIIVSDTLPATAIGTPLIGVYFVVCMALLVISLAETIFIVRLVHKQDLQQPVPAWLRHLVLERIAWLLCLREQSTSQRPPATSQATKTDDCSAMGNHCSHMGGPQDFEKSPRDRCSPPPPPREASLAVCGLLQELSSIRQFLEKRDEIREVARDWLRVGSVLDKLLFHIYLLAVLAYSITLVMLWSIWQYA

[9] = molecular target: Cyclin-dependent kinase 8 (Homo sapiens) (UniProt P49336)
[10] = system: Receptor-type tyrosine-protein kinase FLT3 (Homo sapiens), P36888 [UNDEFINED MUTATION]
[11] = molecular target: Vascular endothelial growth factor receptor 1 (Homo sapiens) (UniProt P17948)
[12] = molecular target: Serine/threonine-protein kinase Nek3 (Homo sapiens) (UniProt P51956)
[13] = molecular target: Mitogen-activated protein kinase kinase kinase kinase 3 (Homo sapiens) (UniProt Q8IVH8)
[14] = molecular target: Mitogen-activated protein kinase kinase kinase 10 (Homo sapiens) (UniProt Q02779)
[15] = molecular target: T2, Homeodomain-interacting protein kinase 4 (Homo sapiens) (UniProt Q8NE63)
T2 sequence (whole entry): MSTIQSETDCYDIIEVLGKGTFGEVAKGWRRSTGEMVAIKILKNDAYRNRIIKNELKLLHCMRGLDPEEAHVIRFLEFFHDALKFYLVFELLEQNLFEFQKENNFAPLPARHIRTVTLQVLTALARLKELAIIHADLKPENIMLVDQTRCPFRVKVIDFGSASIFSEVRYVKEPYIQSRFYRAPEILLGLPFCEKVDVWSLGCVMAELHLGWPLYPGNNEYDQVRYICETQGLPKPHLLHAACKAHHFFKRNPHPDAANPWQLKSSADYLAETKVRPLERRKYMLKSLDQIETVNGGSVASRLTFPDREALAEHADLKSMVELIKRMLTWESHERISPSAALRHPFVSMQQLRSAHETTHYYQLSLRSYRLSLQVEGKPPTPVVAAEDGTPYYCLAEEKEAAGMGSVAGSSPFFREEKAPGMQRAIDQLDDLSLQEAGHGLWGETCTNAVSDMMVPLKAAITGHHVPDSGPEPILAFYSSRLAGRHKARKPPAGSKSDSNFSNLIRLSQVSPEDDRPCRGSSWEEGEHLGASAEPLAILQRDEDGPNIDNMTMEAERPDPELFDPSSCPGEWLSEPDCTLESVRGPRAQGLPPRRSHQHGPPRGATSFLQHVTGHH

[16] = molecular target: Testis-specific serine/threonine-protein kinase 3 (Homo sapiens) (UniProt Q96PN8)
[17] = Compound concentration 100.0 nM
[18] = Compound concentration 1000.0 nM

Chain of Mitogen-activated protein kinase kinase kinase kinase 3 (Homo sapiens) (Q8IVH8 whole entry): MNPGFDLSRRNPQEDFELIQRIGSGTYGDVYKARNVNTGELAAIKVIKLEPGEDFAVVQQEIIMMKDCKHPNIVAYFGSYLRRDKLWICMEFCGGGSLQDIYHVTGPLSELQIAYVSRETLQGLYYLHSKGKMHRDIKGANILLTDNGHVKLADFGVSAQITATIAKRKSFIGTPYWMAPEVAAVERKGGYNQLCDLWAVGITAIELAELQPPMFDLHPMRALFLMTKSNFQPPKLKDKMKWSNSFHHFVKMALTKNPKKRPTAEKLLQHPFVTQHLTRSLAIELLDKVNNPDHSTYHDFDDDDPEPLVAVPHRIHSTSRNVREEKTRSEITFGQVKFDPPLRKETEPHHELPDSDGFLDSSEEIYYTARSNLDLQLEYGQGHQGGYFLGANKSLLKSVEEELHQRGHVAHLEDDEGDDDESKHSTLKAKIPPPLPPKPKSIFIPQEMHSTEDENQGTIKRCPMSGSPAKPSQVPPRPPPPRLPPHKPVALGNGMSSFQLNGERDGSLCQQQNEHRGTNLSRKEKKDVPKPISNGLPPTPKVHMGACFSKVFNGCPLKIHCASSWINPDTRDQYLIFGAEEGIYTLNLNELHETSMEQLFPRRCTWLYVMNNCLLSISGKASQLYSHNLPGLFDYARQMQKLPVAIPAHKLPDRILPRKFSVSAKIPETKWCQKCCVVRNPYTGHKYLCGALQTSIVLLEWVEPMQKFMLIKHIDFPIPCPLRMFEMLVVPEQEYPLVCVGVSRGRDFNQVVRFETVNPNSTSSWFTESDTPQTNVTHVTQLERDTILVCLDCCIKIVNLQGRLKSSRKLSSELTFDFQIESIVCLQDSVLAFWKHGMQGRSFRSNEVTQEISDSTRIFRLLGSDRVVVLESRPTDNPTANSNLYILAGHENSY
Chain of Vascular endothelial growth factor receptor 1 (Homo sapiens) (P17948 whole entry): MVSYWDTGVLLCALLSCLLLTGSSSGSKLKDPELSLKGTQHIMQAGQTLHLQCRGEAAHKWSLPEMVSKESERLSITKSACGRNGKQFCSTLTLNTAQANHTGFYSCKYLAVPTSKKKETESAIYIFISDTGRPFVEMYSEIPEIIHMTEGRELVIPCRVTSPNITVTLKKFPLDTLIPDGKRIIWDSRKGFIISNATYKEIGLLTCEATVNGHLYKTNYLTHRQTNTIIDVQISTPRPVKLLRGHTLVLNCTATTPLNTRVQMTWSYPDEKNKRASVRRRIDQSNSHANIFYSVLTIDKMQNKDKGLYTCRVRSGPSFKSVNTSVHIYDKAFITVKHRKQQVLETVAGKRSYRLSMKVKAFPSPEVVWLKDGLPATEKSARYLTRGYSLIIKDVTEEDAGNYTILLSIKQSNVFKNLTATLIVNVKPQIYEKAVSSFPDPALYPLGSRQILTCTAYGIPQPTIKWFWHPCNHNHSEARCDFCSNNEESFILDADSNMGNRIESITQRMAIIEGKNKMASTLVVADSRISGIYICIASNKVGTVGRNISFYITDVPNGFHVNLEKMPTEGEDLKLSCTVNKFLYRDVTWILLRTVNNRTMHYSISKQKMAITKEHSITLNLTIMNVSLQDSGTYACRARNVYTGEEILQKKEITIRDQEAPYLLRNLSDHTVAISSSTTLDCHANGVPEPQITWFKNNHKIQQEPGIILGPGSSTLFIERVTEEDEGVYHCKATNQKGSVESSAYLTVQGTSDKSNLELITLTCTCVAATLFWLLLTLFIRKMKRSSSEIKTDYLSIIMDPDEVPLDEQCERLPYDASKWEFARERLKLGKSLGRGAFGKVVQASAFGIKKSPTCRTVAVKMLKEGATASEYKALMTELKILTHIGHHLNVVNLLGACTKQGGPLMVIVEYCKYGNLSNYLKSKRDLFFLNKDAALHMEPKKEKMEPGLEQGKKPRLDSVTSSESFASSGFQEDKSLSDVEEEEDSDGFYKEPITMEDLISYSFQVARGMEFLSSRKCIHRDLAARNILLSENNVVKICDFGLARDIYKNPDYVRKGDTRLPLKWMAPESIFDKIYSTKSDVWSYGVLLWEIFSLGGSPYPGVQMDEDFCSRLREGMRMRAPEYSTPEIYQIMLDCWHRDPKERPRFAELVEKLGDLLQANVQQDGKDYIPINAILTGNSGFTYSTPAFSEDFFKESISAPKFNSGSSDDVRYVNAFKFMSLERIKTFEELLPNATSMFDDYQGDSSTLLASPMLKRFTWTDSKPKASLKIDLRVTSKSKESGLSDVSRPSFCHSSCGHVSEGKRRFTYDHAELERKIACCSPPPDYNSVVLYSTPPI
Chain of Cyclin-dependent kinase 8 (Homo sapiens) (P49336 whole entry): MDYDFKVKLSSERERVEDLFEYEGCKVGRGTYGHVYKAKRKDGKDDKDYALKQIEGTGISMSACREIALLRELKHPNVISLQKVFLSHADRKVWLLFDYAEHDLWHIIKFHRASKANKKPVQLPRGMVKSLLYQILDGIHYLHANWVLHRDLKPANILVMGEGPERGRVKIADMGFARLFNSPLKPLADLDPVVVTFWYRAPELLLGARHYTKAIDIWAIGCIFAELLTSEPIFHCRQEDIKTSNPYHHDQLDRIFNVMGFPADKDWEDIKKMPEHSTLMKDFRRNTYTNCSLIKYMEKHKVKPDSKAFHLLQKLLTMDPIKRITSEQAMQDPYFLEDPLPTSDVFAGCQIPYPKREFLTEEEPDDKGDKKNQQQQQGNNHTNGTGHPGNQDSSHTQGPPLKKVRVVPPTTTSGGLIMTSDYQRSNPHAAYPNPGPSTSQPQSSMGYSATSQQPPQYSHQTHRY
Chain of Homeodomain-interacting protein kinase 1 (Homo sapiens) (Q86Z02 whole entry, looked up): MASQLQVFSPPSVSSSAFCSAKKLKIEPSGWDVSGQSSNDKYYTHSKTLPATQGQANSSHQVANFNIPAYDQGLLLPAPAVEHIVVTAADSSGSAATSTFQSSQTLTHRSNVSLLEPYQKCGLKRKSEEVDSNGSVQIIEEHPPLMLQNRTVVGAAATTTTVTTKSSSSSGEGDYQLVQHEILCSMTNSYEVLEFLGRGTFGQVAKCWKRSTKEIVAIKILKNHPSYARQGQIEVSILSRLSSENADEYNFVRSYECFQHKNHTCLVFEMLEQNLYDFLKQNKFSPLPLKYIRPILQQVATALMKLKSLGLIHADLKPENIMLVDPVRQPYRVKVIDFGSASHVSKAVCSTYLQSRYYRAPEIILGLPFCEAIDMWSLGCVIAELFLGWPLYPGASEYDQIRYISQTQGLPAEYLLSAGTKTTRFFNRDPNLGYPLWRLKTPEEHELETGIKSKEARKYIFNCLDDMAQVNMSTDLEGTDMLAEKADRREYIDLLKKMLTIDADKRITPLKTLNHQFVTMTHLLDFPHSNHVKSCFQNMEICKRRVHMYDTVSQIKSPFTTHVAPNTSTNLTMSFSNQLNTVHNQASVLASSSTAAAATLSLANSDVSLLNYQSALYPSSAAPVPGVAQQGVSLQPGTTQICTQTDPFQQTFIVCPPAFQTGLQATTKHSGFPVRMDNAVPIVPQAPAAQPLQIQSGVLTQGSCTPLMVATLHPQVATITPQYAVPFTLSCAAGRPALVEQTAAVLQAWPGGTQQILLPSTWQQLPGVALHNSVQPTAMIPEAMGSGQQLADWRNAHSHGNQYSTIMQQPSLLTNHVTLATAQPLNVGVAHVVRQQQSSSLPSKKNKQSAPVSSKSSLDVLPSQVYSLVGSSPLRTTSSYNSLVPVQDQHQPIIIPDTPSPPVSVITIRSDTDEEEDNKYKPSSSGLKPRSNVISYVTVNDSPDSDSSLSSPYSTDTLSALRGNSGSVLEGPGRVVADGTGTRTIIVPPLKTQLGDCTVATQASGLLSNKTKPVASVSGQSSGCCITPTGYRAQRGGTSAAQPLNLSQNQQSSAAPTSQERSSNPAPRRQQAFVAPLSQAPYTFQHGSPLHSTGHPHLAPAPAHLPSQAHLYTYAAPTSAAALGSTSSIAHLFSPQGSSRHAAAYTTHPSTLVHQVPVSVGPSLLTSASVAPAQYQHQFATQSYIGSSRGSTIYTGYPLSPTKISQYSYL
Chain of Serine/threonine-protein kinase Nek7 (Homo sapiens) (Q8TDX7 whole entry, looked up): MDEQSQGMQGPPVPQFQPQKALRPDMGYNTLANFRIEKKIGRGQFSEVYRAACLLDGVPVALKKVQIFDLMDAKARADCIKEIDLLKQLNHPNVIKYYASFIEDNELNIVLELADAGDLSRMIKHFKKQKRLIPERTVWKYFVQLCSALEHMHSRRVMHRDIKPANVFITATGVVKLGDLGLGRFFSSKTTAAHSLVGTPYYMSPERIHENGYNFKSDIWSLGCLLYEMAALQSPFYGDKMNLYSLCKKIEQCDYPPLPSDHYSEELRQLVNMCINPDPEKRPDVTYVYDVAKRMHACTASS
Chain of Calcium/calmodulin-dependent protein kinase type II subunit alpha (Homo sapiens) (Q9UQM7 whole entry): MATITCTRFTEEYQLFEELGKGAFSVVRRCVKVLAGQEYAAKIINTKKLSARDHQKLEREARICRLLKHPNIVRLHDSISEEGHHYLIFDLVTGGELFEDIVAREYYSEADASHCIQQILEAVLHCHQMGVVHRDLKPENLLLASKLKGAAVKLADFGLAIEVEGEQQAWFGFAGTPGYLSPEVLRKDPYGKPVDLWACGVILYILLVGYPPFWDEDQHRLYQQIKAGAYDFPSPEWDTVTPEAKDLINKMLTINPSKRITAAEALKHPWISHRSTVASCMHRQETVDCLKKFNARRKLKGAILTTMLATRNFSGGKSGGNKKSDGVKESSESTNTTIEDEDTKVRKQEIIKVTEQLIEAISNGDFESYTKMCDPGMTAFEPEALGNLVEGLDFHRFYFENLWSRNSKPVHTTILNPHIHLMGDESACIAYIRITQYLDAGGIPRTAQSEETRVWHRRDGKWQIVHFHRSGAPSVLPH
Chain of Testis-specific serine/threonine-protein kinase 3 (Homo sapiens) (Q96PN8 whole entry): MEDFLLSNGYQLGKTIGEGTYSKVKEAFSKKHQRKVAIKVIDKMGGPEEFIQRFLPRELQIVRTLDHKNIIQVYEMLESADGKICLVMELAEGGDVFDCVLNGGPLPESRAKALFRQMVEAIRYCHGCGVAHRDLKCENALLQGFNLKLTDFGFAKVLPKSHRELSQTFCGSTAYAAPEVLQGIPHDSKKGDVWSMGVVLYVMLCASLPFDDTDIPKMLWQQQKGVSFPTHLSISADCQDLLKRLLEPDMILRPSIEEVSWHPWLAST

C[C@@H]1CN(c2cc(-c3n[nH]c4ccc(OC5(C)CC5)cc34)ncn2)C[C@H](C)O1 [MLi-2]
inactive: residual activity [1, 17] 96% | residual activity [2, 17] 81% | residual activity [3, 17] 100% | residual activity [4, 17] 69% | residual activity [5, 17] 100% | residual activity [6, 17] 100% | residual activity [7, 17] 87% | inhibition [8] 4.35% | residual activity [9, 17] 63% | residual activity [10, 17] 75% | residual activity [11, 17] 100% | residual activity [12, 17] 76% | residual activity [13, 17] 88% | residual activity [14, 17] 100% | residual activity [15, 17] 97% | residual activity [16, 17] 79%

C[C@@H]1CN(c2cc(-c3nn(C)c4ccc(OC5(C)CC5)cc34)ncn2)C[C@H](C)O1 [MLi-2-NC]
inactive: residual activity [1, 18] 89% | residual activity [2, 18] 64% | residual activity [3, 18] 79% | residual activity [4, 18] 85% | residual activity [5, 18] 100% | residual activity [6, 18] 98% | residual activity [7, 18] 93% | inhibition [8] -3.11% | residual activity [9, 18] 100% | residual activity [10, 18] 88% | residual activity [11, 18] 95% | residual activity [12, 18] 99% | residual activity [13, 18] 100% | residual activity [14, 18] 100% | residual activity [15, 18] 79% | residual activity [16, 18] 75%
